SMILES strings stand for the structures.

One test has as its system liver mitochondria. Put plainly: Exposed protein thiols, glutathionylation and GSH/GSSG in liver mitochondria. Format: biochemical, rat. The following applies: mitochondria; MitoSNAP 5 μM. The method, then:
Mitochondrial incubations were usually in KCl buffer (120 mM KCl, 10 mM HEPES, 1 mM EGTA, 100 μM N,N-bis(2-bis[carboxymethyl]aminoethyl) glycine (DTPA) and 10 μM neocuproine, pH 7.2) with 10 mM succinate and 4 μg/ml rotenone in the dark at 37° C., unless stated otherwise. An electrode selective for the TPP moiety of MitoSNAP and MitoNAP was made and used as described previously (Asin-Cayuela, J., Manas, A. R., James, A. M., Smith, R. A. & Murphy, M. P. Fine-tuning the hydrophobicity of a mitochondria-targeted antioxidant. FEBS Letts. 571, 9-16 (2004)). Respiration rates were measured in a Clark type O2 electrode (Rank Brothers, UK). To measure GSH and GSSG, mitochondria (1 mg protein/ml) were incubated with 0-10 μM MitoSNO1 or MitoNAP for 10 min, pelleted by centrifugation and the GSH and GSSG contents assessed by the recycling assay (Scarlett, J. L., Packer, M. A., Porteous, C. M. & Murphy, M. P. Alterations to glutathione and nicotinamide nucleotides during the mitochondrial permeability transition induced by peroxynitrite. Biochem. Pharmacol. 52, 1047-1055 (1996)). The measurement of exposed mitochondrial protein thiols is described below.
Small molecules were removed by centrifugation through MicroBioSpin Columns (cut off=6 kDa), the eluate was clarified by centrifugation (2 min at 10,000×g) and protein thiols measured in triplicate by mixing 10 μl sample or GSH standard with 160 μl of 200 μM dithionitrobenzoic acid (DTNB) in 80 mM NaPi, 1 mM EDTA, pH 8 in a 96 well plate and absorbance at 412 nm was measured after 30 min at room temperature and the thiol content determined from the GSH standard curve. The protein concentration was measured in parallel by the bicinchonininc assay using BSA as a standard.
The interaction of MitoSNAP with mitochondrial thiol proteins is likely to initiate a dynamic process that may lead to other protein thiol modifications, such as disulfide formation, glutathionylation, sulfenylation or sulfenylamide formation, in addition to persistent S-nitrosation. To assess these, the content of reactive, solvent-exposed thiols on native liver mitochondrial proteins was measured. […] This is consistent with the finding that the maximum extent of mitochondrial protein S-nitrosation by 5 μM MitoSNAP (˜500 pmol SNO/mg protein; FIG. 11) was only ˜1% of the total number of protein thiols available. A small amount of MitoSNAP binding to mitochondrial thiol proteins through the formation of mixed disulfides was detectable by immunoblotting.

The test system of test [1] is liver or heart mitochondria. The test can be described thus: Visualisation of S-nitrosated mitochondrial proteins by Cy3 maleimide labelling. Format: biochemical, rat. The following applies: 10 μM MitoSNAP or 500 μM diamide, 5 min. The protocol:
FIG. 11 is a series of graphs showing S-nitrosation of mitochondrial thiols by MitoSNAP. (a) Time course of S-nitrosation of mitochondrial proteins by MitoSNAP. Liver mitochondria (1 mg protein) were incubated in 1 ml KCl buffer supplemented with rotenone and succinate in the presence of 5 μM MitoSNAP. At various times mitochondria were treated with 10 mM N-ethylmaleimide (NEM), isolated by centrifugation and the S-nitrosothiol content assessed. Data are of a typical experiment showing means±range of duplicate samples for each time point, each measured in duplicate. The experiment was repeated twice. (b) S-nitrosation of mitochondrial proteins by different concentrations of MitoSNAP and SNAP. Aliquots of liver mitochondria were incubated with the indicated concentrations of MitoSNAP or SNAP for […] in the presence or absence of 500 nM FCCP and then assessed for S-nitrosothiol content as in (a). […] Data are of a typical experiment showing means±range of duplicate samples for each time point, each measured in duplicate. […] After further incubation for 5 min at 37° C. in the dark, the medium was removed and the content of S-nitrosated proteins was measured. […] S-nitrosated thiols were then selectively tagged with Cy3 maleimide and protein (10 μg) was then separated on a 12.5% SDS PAGE gel which was stained with coomassie blue and scanned for Cy3 fluorescence. […]

Take `CN(C)C(=O)/N=N/C(=O)N(C)C` [diamide, reference compound]: the “protein-glutathione mixed disulfides (glutathionylation)” value with liver mitochondria is reported as “extensive glutathionylation”. Further, the “Cy3 labelling of S-nitrosated proteins” value in test [1] is listed as “did not label proteins”.
